Read-outs that look alike come from different tables or passages of the source.
Key:
[1] = Growth inhibition / minimum inhibitory concentration (MIC) by 2-fold serial dilutions in Trypticase Soy Broth, 3 inoculations; assay type: cell-based; conditions: read-out: End-point activity (MIC) QA (573 alone); on Growth after inoculation: key: -: growth inhibited; +: growth not inhibited
Description: (§1) Each single culture was inoculated to TSB agar slants and incubated for 2 days at 30° C. for C. albicans and all bacteria except E. coli and S. aureus, which were at 37° C., and incubated for 10-14 days at 25° C. for fungal cultures. The bacteria and fungi were then washed off the slants with phosphate buffer (0.125 M, pH 7.2) and inoculated into each test tube containing a given concentration and ratio of 573 and 886 to make final cell concentration of about 2×10^7 bacteria and 2×10^6 fungi per ml. […] Seven days after inoculation, 5 microliter of sample from each test tube (containing about 10^5 bacteria and 10^4 fungi from original inoculation) was removed and assessed for viable organisms by 1:50 dilution into TSB medium and checked for regrowth. No viable organisms were detected from the test tubes where MICs were observed. […] Each test tube was reinoculated 2 more times (a total of 3 inoculations) to determine the capacity and the longlasting activity of the combinations.
(§2) As shown, a wide range of concentration and ratios was tested. More importantly all the critical end-point activities for the combinations were covered. […] Thus, the end-point activities are based on the minimum concentrations of a given ratio of combination product that inhibit all three inoculations.

[2] = tested on: mixture of the following 12 microorganisms: Escherichia coli, Candida albicans, Pseudomonas oleovarans, Pseudomonas aeruginosa, Staphylococcus aureus …; assay: as above; assay type: cell-based
Description: as §1, §2

[3] = Expt. 1, all three inoculations
[4] = Expt. 2, all three inoculations

SMILES: Cn1sccc1=O [compound 573, 2-methyl-4-isothiazolin-3-one]
- MIC [1, 3]: 500 µg/mL
- MIC [1, 4]: 125 µg/mL
- Growth after inoculation ([2]; Expt. 1, 1st inoculation, 573(A) 0.5 ppm): +
- Growth after inoculation ([2]; Expt. 1, 1st inoculation, 573(A) 1.0 ppm): +
- Growth after inoculation ([2]; Expt. 1, 1st inoculation, 573(A) 2.0 ppm): +
- Growth after inoculation ([2]; Expt. 1, 1st inoculation, 573(A) 3.9 ppm): +
- Growth after inoculation ([2]; Expt. 1, 1st inoculation, 573(A) 9.8 ppm): +
- Growth after inoculation ([2]; Expt. 1, 1st inoculation, 573(A) 15.6 ppm): +
- Growth after inoculation ([2]; Expt. 1, 1st inoculation, 573(A) 31.2 ppm): +
- Growth after inoculation ([2]; Expt. 1, 1st inoculation, 573(A) 62.5 ppm): +
- Growth after inoculation ([2]; Expt. 1, 1st inoculation, 573(A) 125.0 ppm): +
- Growth after inoculation ([2]; Expt. 1, 1st inoculation, 573(A) 250.0 ppm): -
- Growth after inoculation ([2]; Expt. 1, 1st inoculation, 573(A) 500.0 ppm): -
- Growth after inoculation ([2]; Expt. 1, 2nd inoculation, 573(A) 0.5 ppm): +
- Growth after inoculation ([2]; Expt. 1, 2nd inoculation, 573(A) 1.0 ppm): +
- Growth after inoculation ([2]; Expt. 1, 2nd inoculation, 573(A) 2.0 ppm): +
- Growth after inoculation ([2]; Expt. 1, 2nd inoculation, 573(A) 3.9 ppm): +
- Growth after inoculation ([2]; Expt. 1, 2nd inoculation, 573(A) 9.8 ppm): +
- Growth after inoculation ([2]; Expt. 1, 2nd inoculation, 573(A) 15.6 ppm): +
- Growth after inoculation ([2]; Expt. 1, 2nd inoculation, 573(A) 31.2 ppm): +
- Growth after inoculation ([2]; Expt. 1, 2nd inoculation, 573(A) 62.5 ppm): +
- Growth after inoculation ([2]; Expt. 1, 2nd inoculation, 573(A) 125.0 ppm): +
- Growth after inoculation ([2]; Expt. 1, 2nd inoculation, 573(A) 250.0 ppm): +
- Growth after inoculation ([2]; Expt. 1, 2nd inoculation, 573(A) 500.0 ppm): -
- Growth after inoculation ([2]; Expt. 1, 3rd inoculation, 573(A) 0.5 ppm): +
- Growth after inoculation ([2]; Expt. 1, 3rd inoculation, 573(A) 1.0 ppm): +
- Growth after inoculation ([2]; Expt. 1, 3rd inoculation, 573(A) 2.0 ppm): +
- Growth after inoculation ([2]; Expt. 1, 3rd inoculation, 573(A) 3.9 ppm): +
- Growth after inoculation ([2]; Expt. 1, 3rd inoculation, 573(A) 9.8 ppm): +
- Growth after inoculation ([2]; Expt. 1, 3rd inoculation, 573(A) 15.6 ppm): +
- Growth after inoculation ([2]; Expt. 1, 3rd inoculation, 573(A) 31.2 ppm): +
- Growth after inoculation ([2]; Expt. 1, 3rd inoculation, 573(A) 62.5 ppm): +
- Growth after inoculation ([2]; Expt. 1, 3rd inoculation, 573(A) 125.0 ppm): +
- Growth after inoculation ([2]; Expt. 1, 3rd inoculation, 573(A) 250.0 ppm): +
- Growth after inoculation ([2]; Expt. 1, 3rd inoculation, 573(A) 500.0 ppm): -
- End-point activity (MIC) Qa (573 in the mixture of 573 and 886) [2, 3]: 500.0 ppm
- Growth after inoculation ([2]; Expt. 2, 1st inoculation, 573(A) 0.5 ppm): +
- Growth after inoculation ([2]; Expt. 2, 1st inoculation, 573(A) 1.0 ppm): +
- Growth after inoculation ([2]; Expt. 2, 1st inoculation, 573(A) 2.0 ppm): +
- Growth after inoculation ([2]; Expt. 2, 1st inoculation, 573(A) 3.9 ppm): +
- Growth after inoculation ([2]; Expt. 2, 1st inoculation, 573(A) 9.8 ppm): +
- Growth after inoculation ([2]; Expt. 2, 1st inoculation, 573(A) 15.6 ppm): +
- Growth after inoculation ([2]; Expt. 2, 1st inoculation, 573(A) 31.2 ppm): +
- Growth after inoculation ([2]; Expt. 2, 1st inoculation, 573(A) 62.5 ppm): +
- Growth after inoculation ([2]; Expt. 2, 1st inoculation, 573(A) 125.0 ppm): -
- Growth after inoculation ([2]; Expt. 2, 1st inoculation, 573(A) 250.0 ppm): -
- Growth after inoculation ([2]; Expt. 2, 1st inoculation, 573(A) 500.0 ppm): -
- Growth after inoculation ([2]; Expt. 2, 2nd inoculation, 573(A) 0.5 ppm): +
- Growth after inoculation ([2]; Expt. 2, 2nd inoculation, 573(A) 1.0 ppm): +
- Growth after inoculation ([2]; Expt. 2, 2nd inoculation, 573(A) 2.0 ppm): +
- Growth after inoculation ([2]; Expt. 2, 2nd inoculation, 573(A) 3.9 ppm): +
- Growth after inoculation ([2]; Expt. 2, 2nd inoculation, 573(A) 9.8 ppm): +
- Growth after inoculation ([2]; Expt. 2, 2nd inoculation, 573(A) 15.6 ppm): +
- Growth after inoculation ([2]; Expt. 2, 2nd inoculation, 573(A) 31.2 ppm): +
- Growth after inoculation ([2]; Expt. 2, 2nd inoculation, 573(A) 62.5 ppm): +
- Growth after inoculation ([2]; Expt. 2, 2nd inoculation, 573(A) 125.0 ppm): -
- Growth after inoculation ([2]; Expt. 2, 2nd inoculation, 573(A) 250.0 ppm): -
- Growth after inoculation ([2]; Expt. 2, 2nd inoculation, 573(A) 500.0 ppm): -
- Growth after inoculation ([2]; Expt. 2, 3rd inoculation, 573(A) 0.5 ppm): +
- Growth after inoculation ([2]; Expt. 2, 3rd inoculation, 573(A) 1.0 ppm): +
- Growth after inoculation ([2]; Expt. 2, 3rd inoculation, 573(A) 2.0 ppm): +
- Growth after inoculation ([2]; Expt. 2, 3rd inoculation, 573(A) 3.9 ppm): +
- Growth after inoculation ([2]; Expt. 2, 3rd inoculation, 573(A) 9.8 ppm): +
- Growth after inoculation ([2]; Expt. 2, 3rd inoculation, 573(A) 15.6 ppm): +
- Growth after inoculation ([2]; Expt. 2, 3rd inoculation, 573(A) 31.2 ppm): +
- Growth after inoculation ([2]; Expt. 2, 3rd inoculation, 573(A) 62.5 ppm): +
- Growth after inoculation ([2]; Expt. 2, 3rd inoculation, 573(A) 125.0 ppm): -
- Growth after inoculation ([2]; Expt. 2, 3rd inoculation, 573(A) 250.0 ppm): -
- Growth after inoculation ([2]; Expt. 2, 3rd inoculation, 573(A) 500.0 ppm): -
- End-point activity (MIC) Qa (573 in the mixture of 573 and 886) [2, 4]: 125.0 ppm
- Contribution to the overall activity of 886 ([2]; at very low concentrations (<8 ppm)): does not contribute significantly to the overall activity of 886
